Source: US20060035867A1, “Methods of treating cancer and the pain associated therewith using endothelin antagonists” (priority 2000, published 2006)

Assays:
[1] = system: bone alkaline phosphatase (BAP); experiment: Bone Alkaline Phosphatase levels (Alkphase-B assay); type: in vivo, human; conditions: hormone refractory prostate cancer subjects; 10 mg ABT-627 vs placebo; AUC in FIG. 5
Description: (§1) Studies were performed on male subjects with asymptomatic hormone refractory prostate cancer with rising PSA levels and on male subjects with symptomatic hormone refractory prostate cancer with rising PSA levels and pain. Subjects in the phase II studies had castrate levels of testosterone, either due to pharmacologic intervention, via leuprolide (Lupron®) or goserelin (Zoladex®), or via surgical castration. Subjects received ABT-627 or placebo. The following tests were conducted:
(§2) Markers of osteoblastic activity were assessed using urine samples. Bone markers include bone alkaline phosphatase (BAP), deoxypridinoline, and N-telopeptide of Type I collagen. Blood samples were collected prior to dosing on Day 1, Day 42, Day 84, Day 168, and every 28 days after Day 168, with a final collection on the last day of the study.
Bone Alkaline Phosphatase levels were determined using the bone-specific Alkphase-B® assay published by Metra Biosystems (Mountain View, Calif.).

[2] = system: Interleukin-6; experiment: Interleukin-6 Levels (sandwich immunoassay, serum of treated subjects); type: in vivo, human; conditions: hormone refractory prostate cancer subjects, 2.5 mg or 10 mg ABT-627 vs placebo, AUC FIG. 1
Description: as §1
(§3) A number of recognized or putative biochemical markers of disease progression have been used to monitor treatment of individuals with prostate cancer. Among these markers are serum Prostate Specific Antigen (PSA), serum acid Phosphatase, Interleukin-6, and Chromagranin-A. As currently accepted, favorable treatment is marked by a decrease or slower rate of increase for PSA, acid phosphatase, and Interleukin-6, while a favorable response is marked by an increase in Chromagranin-A. […]
The effect of ABT-627 adminstration on Interleukin-6 levels in human serum samples was determined at Quintiles Laboratories using a sandwich immunoassay. […] After incubation, the wells were washed, and the bound enzymatic activity was measured using a chromogenic substrate. […]

[3] = system: male subjects with symptomatic hormone refractory prostate cancer with rising PSA levels and pain; experiment: Visual Analog Scale (VAS) pain assessment; type: in vivo, human; conditions: 2.5 mg or 10 mg ABT-627 vs placebo, independent of the effects of morphine, AUC in FIG. 3
Description: Studies were performed on male subjects with asymptomatic hormone refractory prostate cancer with rising PSA levels and on male subjects with symptomatic hormone refractory prostate cancer with rising PSA levels and pain. Subjects in the phase II studies had castrate levels of testosterone, either due to pharmacologic intervention, via leuprolide (Lupron®) or goserelin (Zoladex®), or via surgical castration. Subjects received ABT-627 or placebo. The following tests were conducted: […]
During the course of the study, pain asessments were done daily, at bedtime, by the subject. […] The log also contained a table on which was recorded all daily pain medication consumed by the patient. […] Clinical personnel who received the logs measured the score by measuring the distance (in mm) from the “no pain” end mark to the point where the subject's line crossed the VAS line. […]
The weekly VAS scores were calculated excluding the lowest and highest score for each week and averaging the remaining five scores. […]
Weekly VAS scores are examined using a longitudinal analysis method to explore trends over time. The duration of the response, defined as the time from baseline to the last weekly assessment for which the responder definition was satisfied, was analyzed using the Kaplan-Meier methodology and logrank test.

[4] = system: Chromagranin-A; experiment: Chromagranin-A Levels (two site chemiluminescence assay, serum of treated subjects); type: in vivo, human; conditions: hormone refractory prostate cancer subjects, 2.5 mg/day of ABT-627, AUC in FIG. 8
Description: as §1, §3
The effect of ABT-627 adminstration on Chromagranin-A levels in human serum samples was determined by proprietary assay conducted at the Nichols Institute. […] The bound, acridinium-labeled material produces light that is detected in a luminometer after addition of triggering agents. […]

[5] = system: Crosslinked N-telopeptide (ICTP) of type I collagen; experiment: Crosslinked N-Telopeptide Levels (DiaSorin ICTP radioimmunoassay); type: in vivo; conditions: hormone refractory prostate cancer subjects; 10 mg ABT-627 vs placebo; human serum; AUC in FIG. 4
Description: as §1, §2
Cross-linked N-telopeptide levels were determined using the DiaSorin (Stillwater, Minn.) assay for the quantitative determination of carboxyterminal cross-linked telopeptide of type I collagen (ICTP) in human serum by equilibrium radioimmunoassay (RIA). Briefly, samples were incubated with the ^125I ICTP tracer and ICTP primary antibody for 2 hours at 37° C. Following the 2 hour incubation, a pre-precipitated second antibody complex was added to separate the bound from free tracer. […] The bound tracer in the pellet was counted with a gamma counter. […]

[6] = system: male subjects with hormone refractory prostate cancer; experiment: Bone scan (Tc-99m phosphonate, bone scan index); type: in vivo, human; conditions: 10 mg ABT-627 versus placebo, FIG. 6
Description: as §1
Bone scans were performed with an NDA approved, Tc-99m phosphonate type radiopharmaceutical. […] Each site was evaluated against a confidence score of 1 to 5, where 1 is negative, 2 is probably negative, 3 is equivocal, 4 is probably positive, and 5 is definitely positive. […] In addition, in a blinded study, a reference nuclear medicine physician interpreted the bone scans quantitatively as follows: the percent of involved bone was estimated for each individual bone, and the individual bone involvement was summed to calculate a global percent bone scan index (BSI). […]
Bone scans were conducted on each subject on day one of the study, and on the final day of the study, and the changes from baseline in bone scan index scores were analysed by mean change and mean percent change, adjusting for baseline characteristics as co-variates using SAS version XXX software.

[7] = system: Acid Phosphatase (ACP); experiment: Acid Phosphatase Levels (Sigma Diagnostics ACP Procedure No. 435, serum of treated subjects); type: in vivo, human; conditions: hormone refractory prostate cancer subjects, ABT-627 vs placebo, AUC in FIG. 7 (10 mg)
Description: as §1
A number of recognized or putative biochemical markers of disease progression have been used to monitor treatment of individuals with prostate cancer. […]
The effect of ABT-627 administeration on Acid Phosphatase levels in human subject serum samples was determined at Quintiles Laboratories using the chemical test described in Sigma Diagnostics Acid Phosphatase (ACP) Procedure No. 435. […] The alpha-naphthol immediately reacts with fast red TR salt to produce a yellow chromophore with an absorbance maximum at 405 nm. The rate of increase in absorbance at 405 nm is directly proportional to ACP activity in the sample. ACP activity was determined in the presence and absence of L-tartrate, the difference being attributed to prostatic acid phosphatase activity. […]

[8] = system: prostate specific antigen (PSA); experiment: Prostate Specific Antigen Level Assay (Chiron ACS: Centaur PSA2, serum of treated subjects); type: in vivo, human; conditions: hormone refractory prostate cancer subjects; 2.5 mg or 10 mg ABT-627 vs placebo; AUC in FIG. 2
Description: as §1, §3
The effect of ABT-627 administeration on prostate specific antigen (PSA) levels in human subject serum samples was determined using the procedure described in the Chiron Diagnostics ACS: Centaur PSA2 Assay. […]
Briefly, a subject population was treated with a placebo or 2.5 mg or 10 mg of ABT-627. […] A direct relationship exists between the amount of PSA present in the patient sample and the RLU's (relative light units) detected.

CCCCN(CCCC)C(=O)CN1C[C@H](c2ccc3c(c2)OCO3)[C@@H](C(=O)O)[C@@H]1c1ccc(OC)cc1 [ABT-627]
BAP levels [1]: decreased
average change in baseline for Interleukin-6 [2]: lower
VAS scores (pain) [3]: decrease in pain
average change from baseline for Chromagranin-A [4]: higher
Crosslinked N-telopeptide levels [5]: decreased
proportion of total skeletal involvement (bone scan) [6]: decrease in the proportion of total skeketal involvement
average change from baseline for acid phosphatase [7]: decreased
rate of increase for acid phosphatase [7]: decreased
rate of increase of PSA in the serum samples [8]: decreases
